The subject of one assay is INS1. As to the kind of experiment: INS-1E survival protection against cytokine death – cell-based, luminescence, retest, dose response (AID 449756).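 Further: cell death triggered by IL-1 beta plus TNF-alpha plus IFN-gamma mixture; protective hits raise ATP signal compared with cytokine alone wells.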 The settings on record: Rattus norvegicus. Format: functional.
Assay [1] in a line: A549 cell cytotoxicity, dose response, cytotoxicity control, plate reader, cherry-pick, antagonist series (AID 743412). Format: functional, cell-based.
The nature of assay [2]: toxicity toward HepG2 liver cells – cell-based, plate reader, cherry-pick, antagonist series, cytotoxicity control, dose response (AID 743416). The assay is classed as functional.
Assay [3] in a line: blockers of bursicon-stimulated LGR2 cAMP reporter – cell-based, HEK293, CRE-luciferase reporter, cherry pick, set 2, dose response (AID 743343).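 Further: transfected cells were stimulated with diluted bursicon conditioned medium after compound addition.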 The assay is classed as functional. (A reporter such as luciferase makes a cellular process visible.)
Assay [4] is described as follows: viability loss in HEK293 cells – cell-based, plate reader, cherry-picked samples, cytotoxicity control, dose response (AID 743446). Format: functional.
Assay [5] can be described thus: cells. Format: functional, cell-based.
Assay [6] has as its target T1, Trace amine-associated receptor 1 (Homo sapiens, UniProt Q96RJ0).
T1 sequence (Q96RJ0 whole entry): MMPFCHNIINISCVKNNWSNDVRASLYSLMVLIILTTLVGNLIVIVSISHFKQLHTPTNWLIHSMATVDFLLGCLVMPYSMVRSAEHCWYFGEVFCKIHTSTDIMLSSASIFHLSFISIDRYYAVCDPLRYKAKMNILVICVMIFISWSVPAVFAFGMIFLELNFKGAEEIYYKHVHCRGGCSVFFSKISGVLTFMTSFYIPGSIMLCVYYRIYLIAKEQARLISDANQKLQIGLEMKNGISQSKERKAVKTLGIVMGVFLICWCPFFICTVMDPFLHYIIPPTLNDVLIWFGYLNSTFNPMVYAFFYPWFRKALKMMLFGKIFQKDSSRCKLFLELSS
Briefly: Fluorescence-based cell-based high throughput dose response assay to identify agonists of the human trace amine associated receptor 1 (TAAR1). Format: functional.

The target of assay [7] is T1, Trace amine-associated receptor 1. Briefly: Counterscreen for agonists of the human trace amine associated receptor 1 (hTAAR1): Fluorescence-based cell-based high throughput dose response assay to identify hTAAR1 agonist that also desensitize TAAR1 receptor response. Format: functional.
Assay [8] can be described thus: cells. Format: functional, cell-based. The source holds these as a separate data set.
Assay [9] can be described thus: HEK-293T viability loss after treatment – luminescence, T-cell screen hits, cytotoxicity control for TCR NF-kB inhibitor project, dose response (AID 489026).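 Further: cells exposed to compound about 14 hours before the viability readout.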 The assay is classed as functional, cell-based.
For assay [10], the target named is T2, Microphthalmia-associated transcription factor (Homo sapiens, UniProt O75030).
T2 sequence (O75030 whole entry): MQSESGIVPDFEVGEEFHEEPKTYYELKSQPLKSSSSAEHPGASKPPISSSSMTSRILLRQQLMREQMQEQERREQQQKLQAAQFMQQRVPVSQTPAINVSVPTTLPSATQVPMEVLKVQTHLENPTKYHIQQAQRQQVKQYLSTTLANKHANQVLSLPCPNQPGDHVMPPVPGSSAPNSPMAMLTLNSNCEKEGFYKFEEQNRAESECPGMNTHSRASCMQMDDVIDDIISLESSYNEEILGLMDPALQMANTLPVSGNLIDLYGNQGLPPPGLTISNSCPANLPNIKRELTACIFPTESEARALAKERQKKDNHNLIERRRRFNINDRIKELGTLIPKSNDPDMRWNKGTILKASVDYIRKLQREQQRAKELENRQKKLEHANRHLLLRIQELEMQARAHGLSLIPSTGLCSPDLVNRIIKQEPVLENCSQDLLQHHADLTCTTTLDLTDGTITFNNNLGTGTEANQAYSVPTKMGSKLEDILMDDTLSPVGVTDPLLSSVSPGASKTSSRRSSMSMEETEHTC
Briefly: reducers of TRPM1 reporter luminescence, concentration series – cell-based, SK-MEL-5, cherry-picked, set 3, MITF inhibitor project, dose response (AID 493073).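 Further: SK-MEL-5 melanoma cells with luciferase driven by the MITF target TRPM1 promoter.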 Format: functional.

Assay [11] is described as follows: blockers of HIV-1 envelope-mediated cell-cell fusion – cherry-pick, dose response (AID 652057). The assay is classed as functional, cell-based.
Assay [12] is described as follows: blockers of HIV-1 ZM109 envelope-driven cell-cell fusion – HeLa effector, CEM target cells, luciferase, cherry-pick, dose response (AID 652058).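 Further: luciferase signal from HIV-1 Env mediated cell-cell fusion of effector and target cells.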 The assay is classed as functional, cell-based.
Assay [13] is described as follows: off-target signal loss in HeLa-CEM21 co-culture – HeLa F-luc CTL cells, cherry-picked, counter-screen for HIV-1 Env fusion inhibitor project, dose response (AID 652040).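 Further: potency for signal decrease marking cytotoxic or nonspecific inhibition.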 The assay is classed as functional, cell-based. (Counterscreens check selectivity or assay interference.)
Assay [14] in a line: HIV-1 AD8 envelope cell-cell fusion blockers – cherry-pick, dose response (AID 652062).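 Further: luciferase signal from cell-cell fusion driven by HIV-1 clade B AD8 Env; potency is for inhibitors of fusion seen as a drop in luminescence.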 The assay is classed as functional, cell-based.
The nature of assay [15]: blockade of melanocortin 4 receptor signaling – cell-based, plate reader, cherry pick, counter-screen for LGR2 antagonist project, dose response (AID 743444).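 Further: transfected HEK 293 cells stimulated with alpha-MSH peptide; potency of inhibitors of the alpha-MSH evoked signal.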 Format: functional.
The target in assay [16] is NAD-dependent protein deacylase sirtuin-5, mitochondrial (Homo sapiens, UniProt Q9NXA8). As to the kind of experiment: sirtuin-5 deacylation blockers, concentration series – biochemical, fluorescence imaging, cherry-pick, set 5, dose response (AID 720591).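 Further: desuccinylation of succinyl peptide AMC substrate read as fluorescence after trypsin release; potency of inhibitors that lower fluorescence and may act on trypsin instead.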
Assay [17] can be described thus: viability loss in CEM21 cells – cell-based, CellTiter-Glo luminescence, cherry-picked, cytotoxicity control for viral fusion inhibitor project, dose response (AID 652042).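 Further: potency for signal decrease meaning cytotoxicity.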 Format: functional. For orientation: In ATP-based viability assays light output follows the ATP content of the culture.
The target in assay [18] is 1-phosphatidylinositol 4,5-bisphosphate phosphodiesterase gamma-1 (Homo sapiens, UniProt P19174). As to the kind of experiment: Counterscreen for inhibitors of phospholipase C isozymes (PLC-B3): Fluorescence-based biochemical high throughput dose response assay to identify inhibitors of phospholipase C isozymes (PLC-gamma1).
Assay [19] concerns the target 1-phosphatidylinositol 4,5-bisphosphate phosphodiesterase beta-3 (Homo sapiens, UniProt Q01970). As to the kind of experiment: Fluorescence-based biochemical high throughput dose response assay to identify inhibitors of phospholipase C isozymes (PLC-B3).
The next assay has as its target Large T antigen (Simian virus 40, UniProt P03070). Format: functional, Betapolyomavirus macacae.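 Further: Confirmatory-stage PubChem screen for compounds that inhibit SV40 T antigen.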
Assay [20] is described as follows: T. cruzi growth inhibition in host cells, dose response, cell-based, plate reader, dry powder, set 2 (AID 652275). Format: functional.

The record followed here is ChEMBL document CHEMBL1201862, “PubChem BioAssay data set” (2004).

Active and inactive are the calls of the source.

In general, AC50 refers to the concentration at which the activity in the assay is half-maximal. As usually defined, the IC50 is the point on the concentration scale where inhibition reaches its midpoint. In general, EC50 refers to the concentration at which the effect is half-maximal.

Chain of 1-phosphatidylinositol 4,5-bisphosphate phosphodiesterase gamma-1 (P19174 whole entry): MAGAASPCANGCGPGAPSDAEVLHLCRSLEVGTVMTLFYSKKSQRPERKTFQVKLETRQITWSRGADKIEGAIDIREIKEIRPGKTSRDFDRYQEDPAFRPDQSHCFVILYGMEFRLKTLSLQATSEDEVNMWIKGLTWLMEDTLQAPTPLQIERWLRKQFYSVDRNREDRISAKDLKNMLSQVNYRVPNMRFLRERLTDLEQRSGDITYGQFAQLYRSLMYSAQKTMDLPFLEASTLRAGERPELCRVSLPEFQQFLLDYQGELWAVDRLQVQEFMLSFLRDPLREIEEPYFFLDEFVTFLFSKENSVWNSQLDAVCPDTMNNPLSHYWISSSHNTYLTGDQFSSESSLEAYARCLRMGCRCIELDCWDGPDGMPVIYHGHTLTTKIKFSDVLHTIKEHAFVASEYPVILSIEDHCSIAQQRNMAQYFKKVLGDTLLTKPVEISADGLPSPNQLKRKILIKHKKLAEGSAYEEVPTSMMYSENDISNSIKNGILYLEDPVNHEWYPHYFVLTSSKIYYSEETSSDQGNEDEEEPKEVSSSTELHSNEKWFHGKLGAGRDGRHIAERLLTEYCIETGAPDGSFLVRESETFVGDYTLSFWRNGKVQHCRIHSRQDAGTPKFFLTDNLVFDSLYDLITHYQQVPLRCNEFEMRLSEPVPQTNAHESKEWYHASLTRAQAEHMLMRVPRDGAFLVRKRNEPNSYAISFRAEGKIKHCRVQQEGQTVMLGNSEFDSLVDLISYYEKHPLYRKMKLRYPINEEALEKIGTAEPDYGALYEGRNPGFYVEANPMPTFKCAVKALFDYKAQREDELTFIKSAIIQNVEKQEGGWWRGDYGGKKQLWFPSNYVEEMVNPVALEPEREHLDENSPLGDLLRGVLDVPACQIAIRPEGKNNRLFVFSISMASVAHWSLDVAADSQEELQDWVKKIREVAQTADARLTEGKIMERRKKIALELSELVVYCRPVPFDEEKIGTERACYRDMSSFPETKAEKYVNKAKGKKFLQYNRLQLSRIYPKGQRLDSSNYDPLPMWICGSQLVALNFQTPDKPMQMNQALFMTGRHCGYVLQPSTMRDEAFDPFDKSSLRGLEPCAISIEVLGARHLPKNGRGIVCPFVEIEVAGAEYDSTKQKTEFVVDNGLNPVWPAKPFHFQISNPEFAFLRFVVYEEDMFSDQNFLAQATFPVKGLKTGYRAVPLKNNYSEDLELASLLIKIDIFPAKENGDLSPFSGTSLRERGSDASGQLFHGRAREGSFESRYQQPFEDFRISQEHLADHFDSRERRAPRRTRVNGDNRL
Chain of NAD-dependent protein deacylase sirtuin-5, mitochondrial (Q9NXA8 whole entry, the tested form may be a part): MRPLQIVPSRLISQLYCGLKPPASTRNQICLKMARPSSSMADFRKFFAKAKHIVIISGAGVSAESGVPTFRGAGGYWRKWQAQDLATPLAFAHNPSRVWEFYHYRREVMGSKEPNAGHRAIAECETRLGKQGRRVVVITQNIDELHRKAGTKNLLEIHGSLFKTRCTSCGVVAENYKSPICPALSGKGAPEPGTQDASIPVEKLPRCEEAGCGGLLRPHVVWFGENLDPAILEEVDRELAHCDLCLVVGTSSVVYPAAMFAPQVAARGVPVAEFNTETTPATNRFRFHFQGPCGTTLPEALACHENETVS
Chain of 1-phosphatidylinositol 4,5-bisphosphate phosphodiesterase beta-3 (Q01970 whole entry): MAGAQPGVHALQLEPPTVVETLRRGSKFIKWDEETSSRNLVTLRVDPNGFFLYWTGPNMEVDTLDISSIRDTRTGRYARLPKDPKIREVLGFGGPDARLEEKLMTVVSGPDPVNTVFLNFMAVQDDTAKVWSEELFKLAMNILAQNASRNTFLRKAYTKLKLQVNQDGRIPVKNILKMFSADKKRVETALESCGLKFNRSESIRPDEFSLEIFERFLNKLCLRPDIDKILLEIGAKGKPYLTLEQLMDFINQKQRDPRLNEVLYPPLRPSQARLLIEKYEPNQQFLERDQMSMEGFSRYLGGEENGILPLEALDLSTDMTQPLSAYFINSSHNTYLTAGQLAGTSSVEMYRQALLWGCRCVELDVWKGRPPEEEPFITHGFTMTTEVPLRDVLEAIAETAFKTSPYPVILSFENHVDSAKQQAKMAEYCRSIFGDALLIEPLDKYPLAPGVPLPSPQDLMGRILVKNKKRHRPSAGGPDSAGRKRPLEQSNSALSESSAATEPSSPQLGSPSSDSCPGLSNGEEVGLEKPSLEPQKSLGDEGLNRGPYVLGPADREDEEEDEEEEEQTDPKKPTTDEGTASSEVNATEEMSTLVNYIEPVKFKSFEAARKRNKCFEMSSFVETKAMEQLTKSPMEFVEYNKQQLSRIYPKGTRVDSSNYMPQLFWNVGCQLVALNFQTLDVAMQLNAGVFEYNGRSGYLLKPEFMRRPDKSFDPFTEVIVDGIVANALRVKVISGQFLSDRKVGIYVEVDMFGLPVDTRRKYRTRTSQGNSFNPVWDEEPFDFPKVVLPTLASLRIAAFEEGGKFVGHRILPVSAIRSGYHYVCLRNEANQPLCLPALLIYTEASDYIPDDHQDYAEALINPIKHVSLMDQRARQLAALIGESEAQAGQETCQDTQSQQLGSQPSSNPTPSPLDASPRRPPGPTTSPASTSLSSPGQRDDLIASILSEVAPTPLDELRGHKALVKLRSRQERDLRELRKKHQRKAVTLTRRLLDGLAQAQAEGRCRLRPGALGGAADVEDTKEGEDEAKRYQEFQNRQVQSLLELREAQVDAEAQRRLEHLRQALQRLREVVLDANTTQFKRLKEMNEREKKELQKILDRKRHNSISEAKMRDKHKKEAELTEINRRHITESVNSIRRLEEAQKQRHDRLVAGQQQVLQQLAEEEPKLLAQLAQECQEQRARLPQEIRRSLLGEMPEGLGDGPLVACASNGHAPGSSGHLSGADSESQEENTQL
Chain of Large T antigen (P03070 whole entry): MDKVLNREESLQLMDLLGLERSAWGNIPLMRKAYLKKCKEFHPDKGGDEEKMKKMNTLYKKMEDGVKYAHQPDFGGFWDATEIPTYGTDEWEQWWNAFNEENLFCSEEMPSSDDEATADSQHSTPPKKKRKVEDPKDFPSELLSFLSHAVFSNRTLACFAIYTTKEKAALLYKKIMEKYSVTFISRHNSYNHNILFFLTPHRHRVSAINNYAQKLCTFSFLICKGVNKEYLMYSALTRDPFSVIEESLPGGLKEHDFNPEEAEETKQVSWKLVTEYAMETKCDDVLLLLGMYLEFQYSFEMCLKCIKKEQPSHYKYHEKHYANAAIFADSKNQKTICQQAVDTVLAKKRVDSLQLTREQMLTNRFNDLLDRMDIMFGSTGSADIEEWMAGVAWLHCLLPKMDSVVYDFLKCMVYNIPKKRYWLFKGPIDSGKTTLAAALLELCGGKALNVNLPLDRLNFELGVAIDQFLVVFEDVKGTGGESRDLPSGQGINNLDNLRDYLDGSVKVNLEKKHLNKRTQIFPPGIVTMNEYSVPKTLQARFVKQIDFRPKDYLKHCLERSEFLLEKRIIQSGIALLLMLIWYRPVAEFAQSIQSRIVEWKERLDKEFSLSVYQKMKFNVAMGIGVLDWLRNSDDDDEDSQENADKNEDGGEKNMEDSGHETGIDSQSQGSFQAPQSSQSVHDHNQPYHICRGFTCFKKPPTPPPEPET

Turning to `CC(=O)c1ccc(Nc2cc(C)nc3c(C)cc(C)cc23)cc1`, the AC50 in the assay on INS1 was 5.22 µM (active); in assay [1] it was 2.54 µM (active); in assay [2], 1.9 µM (active); in assay [3] it was 40.3 µM (active); in [4], 23.9 µM (active).
Consider `COc1ccc2cc(CN(CCc3ccccc3)Cc3nnnn3CC3CCCO3)c(O)nc2c1` (stereo unspecified), for which the figures for the IC50 (in “cells [5]”; in [7]) were > 29.9 µM (inactive) and 8.83 µM (active), respectively. The EC50 in [6] is 4.42 µM (active); in the assay “cells [8]” it was > 29.9 µM (inactive).
In the case of `CCn1c(C)cc(C(=O)CN2C(=O)c3ccccc3S2(=O)=O)c1C`, the IC50 in [9] was > 80 µM (inactive). The AC50 in assay [10] was 1.99 µM (active); in assay [11], 2.09 µM (active); in assay [12], 7.25 µM (active); in [13] it was 4.71 µM (active); in assay [14], 0.358 µM (active); in [3] it was 1.46 µM (active). Besides, the AC50 in assay [15] was 1.16 µM (active).
Turning to `CC(C)C[C@H](NC(=O)C1CCN(C(=O)[C@H](Cc2ccccc2)NC(=O)OC(C)(C)C)CC1)C(=O)O`, the AC50 in [16] is > 30 µM (inactive).
On to `OCC1OC(n2ccc3c(NO)ncnc32)C(O)C1O` (stereo unspecified), for which the AC50 in assay [11] is 2.35 µM (active); in assay [17], 0.641 µM (active); in [12], 2.44 µM (active); in assay [13] it was 2.65 µM (active); in assay [14] it was 4.53 µM (active).
For `COc1ccccc1COC(=O)c1cccc(S(=O)(=O)N2CCCC2)c1`, the IC50 in assay [18] and in assay [19] was > 123 µM (inactive) each time.
For `Oc1ccc(/C=N\Nc2cnnc(O)c2Cl)c(O)c1`, the IC50 at Large T antigen is 15.7 µM (active); in the assay “cells [5]”, > 29.9 µM (inactive); in assay [7], 24.5 µM (inactive). Besides, the EC50 in [6] was 1.16 µM (active); in the assay “cells [8]”, > 29.9 µM (inactive).
Consider `CC(C)N1C[C@H](CNCc2ccc(Cl)cc2)Oc2c(NC(=O)c3ccncc3)cccc2C1=O`, for which the AC50 in assay [20] was 0.731 µM (active).
